{"source": "ChEMBL document CHEMBL1125470", "about": "“Novel sulfonamides as potential, systemically active antitumor agents” (J Med Chem, 1992)", "key": {"[1]": {"tested_on": "MC-38", "assay": "Ratio between Tumor weight of treated mice and Tumor weight of control mice * 100 at the dose of 12.5 (mg/kg/day)", "format": "functional"}, "[2]": {"tested_on": "KB", "assay": "In vitro inhibitory activity against KB (human carcinoma of the nasopharynx) cell proliferation.", "format": "functional, cell-based"}, "[3]": {"tested_on": "MC-38", "assay": "Ratio between Tumor weight of treated mice and Tumor weight of control mice * 100 at the dose of 25 (mg/kg/day)", "format": "functional"}, "[4]": {"tested_on": "MC-38", "assay": "In vitro inhibitory activity against colon 38 cell proliferation", "format": "functional, cell-based", "conditions": "Mus musculus"}, "[5]": {"tested_on": "Mus musculus", "assay": "Ratio between dead mices and total mices at the dose of 12.5 (mg/kg/day.); 0/6", "format": "functional"}, "[6]": {"tested_on": "Mus musculus", "assay": "Ratio between dead mices and total mices at the dose of 25 (mg/kg/day.); 0/6", "format": "functional"}, "[7]": {"tested_on": "Mus musculus", "assay": "Ratio between dead mices and total mices at the dose of 50 (mg/kg/day.); 0/6", "format": "functional"}, "[8]": {"tested_on": "MC-38", "assay": "Ratio between Tumor weight of treated mice and Tumor weight of control mice * 100 at the dose of 50 (mg/kg/day)", "format": "functional"}, "[9]": {"tested_on": "MC-38", "assay": "Ratio between Tumor weight of treated mice and Tumor weight of control mice * 100 at the dose of 200 (mg/kg/day.)", "format": "functional"}, "[10]": {"tested_on": "Mus musculus", "assay": "Ratio between dead mices and total mices at the dose of 100 (mg/kg/day.); 0/6", "format": "functional"}, "[11]": {"tested_on": "MC-38", "assay": "Ratio between Tumor weight of treated mice and Tumor weight of control mice * 100 at the dose of 400 (mg/kg/day.)", "format": "functional"}, "[12]": {"tested_on": "Mus musculus", "assay": "Ratio between dead mices and total mices at the dose of 400 (mg/kg/day.); 0/6", "format": "functional"}, "[13]": {"tested_on": "Mus musculus", "assay": "Ratio between dead mices and total mices at the dose of 200 (mg/kg/day.); 0/6", "format": "functional"}, "[14]": {"tested_on": "MC-38", "assay": "Ratio between Tumor weight of treated mice and Tumor weight of control mice * 100 at the dose of 100 (mg/kg/day.)", "format": "functional"}, "[15]": {"tested_on": "MC-38", "assay": "Ratio between Tumor weight of treated mice and Tumor weight of control mice * 100 at the dose of 50 (mg/kg/day.)", "format": "functional"}, "[16]": {"tested_on": "Mus musculus", "assay": "Ratio between dead mices and total mices at the dose of 200 (mg/kg/day.); 2/6", "format": "functional"}, "[17]": {"tested_on": "MC-38", "assay": "Ratio between Tumor weight of treated mice and Tumor weight of control mice * 100 at the dose of 200 (mg/kg/day)", "format": "functional"}, "[18]": {"tested_on": "MC-38", "assay": "Ratio between Tumor weight of treated mice and Tumor weight of control mice * 100 at the dose of 100 (mg/kg/day)", "format": "functional"}}}
{"smiles": "COc1ccc(S(=O)(=O)Nc2cccnc2Nc2ccncc2)cc1", "values": [{"measurement": "T/C", "setting": "[1]", "value": 41, "unit": "%"}, {"measurement": "IC50", "setting": "[2]", "value": 1, "unit": "µg/mL"}, {"measurement": "T/C", "setting": "[3]", "value": 35, "unit": "%"}, {"measurement": "IC50", "setting": "[4]", "value": 1.4, "unit": "µg/mL"}, {"measurement": "Deaths/total", "setting": "[5]", "value": 0}, {"measurement": "Deaths/total", "setting": "[6]", "value": 0}, {"measurement": "Deaths/total", "setting": "[7]", "value": 0}, {"measurement": "T/C", "setting": "[8]", "value": 14, "unit": "%"}]}
{"smiles": "Cc1ccc(S(=O)(=O)Nc2cccnc2Nc2ccccc2)cc1", "values": [{"measurement": "T/C", "setting": "[9]", "value": 19, "unit": "%"}, {"measurement": "IC50", "setting": "[2]", "value": 1.5, "unit": "µg/mL"}, {"measurement": "Deaths/total", "setting": "[10]", "value": 0}, {"measurement": "T/C", "setting": "[11]", "value": 1, "unit": "%"}, {"measurement": "Deaths/total", "setting": "[12]", "value": 0}, {"measurement": "Deaths/total", "setting": "[13]", "value": 0}, {"measurement": "IC50", "setting": "[4]", "value": 3.2, "unit": "µg/mL"}, {"measurement": "T/C", "setting": "[14]", "value": 20, "unit": "%"}]}
{"smiles": "Cc1ccc(S(=O)(=O)Nc2ccccc2Nc2ccccc2)cc1", "values": [{"measurement": "IC50", "setting": "[2]", "value": 0.46, "unit": "µg/mL"}, {"measurement": "IC50", "setting": "[4]", "value": 1.2, "unit": "µg/mL"}]}
{"smiles": "COc1ccc(S(=O)(=O)Nc2cccnc2Nc2ccccc2)cc1", "values": [{"measurement": "T/C", "setting": "[9]", "value": 1, "unit": "%"}, {"measurement": "IC50", "setting": "[2]", "value": 0.27, "unit": "µg/mL"}, {"measurement": "Deaths/total", "setting": "[10]", "value": 0}, {"measurement": "Deaths/total", "setting": "[13]", "value": 0}, {"measurement": "IC50", "setting": "[4]", "value": 0.45, "unit": "µg/mL"}, {"measurement": "T/C", "setting": "[15]", "value": 27, "unit": "%"}, {"measurement": "Deaths/total", "setting": "[7]", "value": 0}, {"measurement": "T/C", "setting": "[14]", "value": 2, "unit": "%"}]}
{"smiles": "COc1ccc(Nc2ncccc2NS(=O)(=O)c2ccc(OC)cc2)cc1", "values": [{"measurement": "IC50", "setting": "[2]", "value": 1.9, "unit": "µg/mL"}, {"measurement": "Deaths/total", "setting": "[10]", "value": 0}, {"measurement": "IC50", "setting": "[4]", "value": 3.6, "unit": "µg/mL"}, {"measurement": "T/C", "setting": "[15]", "value": 30, "unit": "%"}, {"measurement": "Deaths/total", "setting": "[7]", "value": 0}, {"measurement": "Deaths/total", "setting": "[16]", "value": 2}, {"measurement": "T/C", "setting": "[17]", "value": 0, "unit": "%"}, {"measurement": "T/C", "setting": "[14]", "value": 1, "unit": "%"}]}
{"smiles": "COc1ccc(S(=O)(=O)Nc2cccnc2Nc2ccc(O)cc2)cc1", "note": "[ABT-751]", "values": [{"measurement": "T/C", "setting": "[18]", "value": 2, "unit": "%"}, {"measurement": "T/C", "setting": "[1]", "value": 59, "unit": "%"}, {"measurement": "IC50", "setting": "[2]", "value": 0.29, "unit": "µg/mL"}, {"measurement": "Deaths/total", "setting": "[10]", "value": 0}, {"measurement": "T/C", "setting": "[3]", "value": 32, "unit": "%"}, {"measurement": "IC50", "setting": "[4]", "value": 0.38, "unit": "µg/mL"}, {"measurement": "Deaths/total", "setting": "[5]", "value": 0}, {"measurement": "Deaths/total", "setting": "[6]", "value": 0}, {"measurement": "Deaths/total", "setting": "[7]", "value": 0}, {"measurement": "T/C", "setting": "[8]", "value": 3, "unit": "%"}]}
